Experimental data taken from US20230172940A1, “METHODS OF EXTENDING LIFESPAN BY ADMINISTERING FERROPTOSIS INHIBITORS” (COLLABORATIVE MEDICINAL DEVELOPMENT, LLC, priority 2020, published 2023).

Experiments:
C. elegans [1] = experiment: Antibiotic tests: lifespan with ampicillin co-administration; format: in vivo, Caenorhabditis elegans
Description: To determine whether the increased lifespan seen with SIH treatment could be explained solely by an antibiotic effect of iron reduction, nematodes were treated with ampicillin, with and without SIH co-administration. Even in the presence of ampicillin, SIH increased median lifespan by 6 days, similar to its benefits in the absence of ampicillin (median increase of 7 days).

C. elegans [2] = experiment: Temporal rescaling by temperature: lifespan at 20° C. and 25° C.; format: in vivo, Caenorhabditis elegans
Description: The effect of temperature is evaluated separately for control and SIH treated worms, population sizes for each replicate are shown in Table 20.
For each of two replicates and treatment factors, the AFT model with Weibull baseline hazard was fitted with temperature as the covariate. The residuals from this model were then subjected to the K-S test.
For both populations, being exposed to the higher temperature of 25° C. accelerates life as expected, by approximately 30% for control worms (Otemp=0.72 (95% Cl: 0.68; 0.77) and 20% for SIH worms (Otemp=0.81 (95% Cl: 0.78; 0.84).

O=C(N/N=C/c1ccccc1O)c1ccncc1 [SIH, Salicylaldehyde isonicotinoyl hydrazone]
lifespan extension on co-administration (C. elegans [1]; SIH and the antibiotic ampicillin co-administered): additive effect on media lifespan extension
increase of median lifespan (C. elegans [1]; SIH in the absence of ampicillin): 7 days
increase of median lifespan (C. elegans [1]; SIH in the presence of ampicillin): 6 days
lifespan extension at two temperatures (C. elegans [2]): still extended lifespan by a similar dimension
